Results reported in patent US6908940B2, “Imidazole compounds and their use as adenosine deaminase inhibitors” (Fujisawa Pharmaceutical Co., Ltd., priority 2000, dated 2005).

Target: T1, Human ADA (Homo sapiens, UniProt P00813)
T1 construct: made in house
T1 sequence (P00813 1-363): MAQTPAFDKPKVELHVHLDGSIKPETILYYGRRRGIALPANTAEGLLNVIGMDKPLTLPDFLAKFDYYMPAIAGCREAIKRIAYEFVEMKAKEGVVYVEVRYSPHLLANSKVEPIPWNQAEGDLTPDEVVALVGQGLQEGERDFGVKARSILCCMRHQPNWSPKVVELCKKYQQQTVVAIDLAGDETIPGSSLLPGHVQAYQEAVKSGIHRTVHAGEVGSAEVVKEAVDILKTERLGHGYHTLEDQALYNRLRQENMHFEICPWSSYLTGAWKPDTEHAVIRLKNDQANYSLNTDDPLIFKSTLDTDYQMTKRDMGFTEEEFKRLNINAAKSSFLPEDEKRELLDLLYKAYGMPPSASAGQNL
Experiment: Adenosine Deaminase (ADA) Enzyme Assay
Type: biochemical
Conditions: 50% inhibition of Vmax vs vehicle; 0.16 μg/ml ADA, 0.1 mM adenosine, phosphate buffer saline pH 7.4, room temperature, decrease in A265 for 3 minutes
Description: Adenosine Deaminase (ADA) Enzyme Assay
• 1-{(2S,3R)-2-hydroxy-5-[2-(3-(4-chlorophenyl)propoxy)-phenyl]-3-pentyl}imidazole-4-carboxamide (Example 8) • 1-[(2S,3R)-2-hydroxy-5-(7-chloro-1-naphthyl)-3-pentyl]-imidazole-4-carboxamide (Example 12) Test Method:
The reaction velocity (V) is measured by a change in absorbance at 265 nm (A265) resulting from the deamination of adenosine. Human ADA was expressed and purified from ADA-deficient bacterial strain. Reaction mixtures of a total volume of 200 μl contained 0.16 μg/ml of ADA and 0.1 mM of adenosine and test compound in 10 mM phosphate buffer saline (pH 7.4). The reaction was started by addition of ADA to a mixture of adenosine and test compound. The reaction was followed at room temperature by recording decrease in A265 for 3 minutes in SPECTRAmax 250 (Molecular Devices, USA) to automatically calculate Vmax. Inhibitory potency of test compound was expressed as IC50 value, the drug concentration required to produce 50% inhibition of Vmax in comparison to vehicle treatment.

IC50 [nM]	Compound
< 20	C[C@H](O)[C@@H](CCc1cccc2ccc(Cl)cc12)n1cnc(C(N)=O)c1 [Example 12, 1-[(2S,3R)-2-hydroxy-5-(7-chloro-1-naphthyl)-3-pentyl]imidazole-4-carboxamide]
< 20	C[C@H](O)[C@@H](CCc1ccccc1OCCCc1ccc(Cl)cc1)n1cnc(C(N)=O)c1 [Example 8, 1-{(2S,3R)-2-hydroxy-5-[2-(3-(4-chlorophenyl)propoxy)phenyl]-3-pentyl}imidazole-4-carboxamide]
